Converted amounts (≈) assume the structure as drawn.

The test system of data set [1] is Plasmodium falciparum. Briefly: Resistance index, ratio of EC50 for chloroquine, mefloquine, pyrimethamine and atovaquone-resistant Plasmodium falciparum TM90-C2B to EC50 for chloroquine and pyrimethamine-resistant Plasmodium falciparum W2. The data set is classed as functional.
Data set [2] concerns Plasmodium falciparum. Briefly: Antimalarial activity against chloroquine, mefloquine, pyrimethamine and atovaquone-resistant Plasmodium falciparum TM90-C2B infected in human A positive erythrocytes after 72 hrs by SYBR Green I assay. The data set is classed as functional, organism-based.
Data set [3] can be described thus: Permeability of the compound by PAMPA method at pH 7.4. The data set is classed as ADME. The following applies: read-out: permeability. (In general: PAMPA measures passive passage across an artificial lipid membrane.)
Data set [4] in a line: Cytotoxicity index, ratio of EC50 for mouse J774 cells to EC50 for chloroquine, mefloquine, pyrimethamine and atovaquone-resistant Plasmodium falciparum TM90-C2B. The data set is classed as cell-based. The conditions noted are these: read-out: Ratio EC50.
Data set [5] has as its system Plasmodium falciparum. Briefly: Antimalarial activity against chloroquine and pyrimethamine-resistant Plasmodium falciparum W2 infected in human A positive erythrocytes after 72 hrs by SYBR Green I assay. The data set is classed as functional, organism-based. The conditions noted are these: W2, 72 h.
Data set [6] is described as follows: Partition coefficient, log D of the compound at pH 7.4 by HPLC analysis. The following applies: octanol/water.
For data set [7], the system named is J774. The data set can be described thus: Cytotoxicity against mouse J774 cells after 72 hrs by Cell titer 96 aqueous one solution cell proliferation assay. The data set is classed as cell-based. The following applies: J774, 72 h.
Data set [8] is described as follows: Aqueous solubility of compound at pH 7.4 by HPLC analysis. The conditions noted are these: buffer.

For `CC1(C)CCc2c([nH]c3ccc(Cl)cc3c2=O)C1`, in data set [1], the “Ratio EC50” value is on record as 2.5. Moreover, the values for the EC50 in data set [2], in data set [5] and in data set [7] were 538 nM, 215 nM and > 1 µM, respectively. The Papp in data set [3] is 96 ×10⁻⁶ cm/s. In data set [4], the selectivity ratio was ≥ 100. In data set [6], the logD (in general, lipophilicity at a set pH, counting ionised and neutral species) is 2.7. Also, the solubility (as a rule, the dissolved amount per volume that the medium holds) in data set [8] is 2 µM (≈ 0.524 µg/mL).

On to `COc1ccc2[nH]c3c(c(=O)c2c1)CCC(C)(C)C3`, for which the values for the EC50 in data set [2], in data set [5] and in data set [7] were > 9720 nM, > 9720 nM and > 5 µM, respectively. The Papp in data set [3] is 128 ×10⁻⁶ cm/s. The selectivity ratio in data set [4] is ≥ 100. Also, the logD in data set [6] is 2.3. The compound also returned a solubility in data set [8] of 9.2 µM (≈ 2.37 µg/mL).

For the compound `CC1(C)CCc2[nH]c3cccc(Cl)c3c(=O)c2C1`, the “Ratio EC50” value in data set [1] was 1.61. Moreover, the results for the EC50 in data set [2], in data set [5] and in data set [7] were 599 nM, 373 nM and > 40 µM, respectively. The Papp in data set [3] was determined as 117 ×10⁻⁶ cm/s. Also, the selectivity ratio in data set [4] is ≥ 100. Further, the logD in data set [6] stood at 2.4. In data set [8], this compound displayed a solubility of 23 µM (≈ 6.02 µg/mL).

For the compound `COc1cccc2c(=O)c3c([nH]c12)CC(C)(C)CC3`, the “Ratio EC50” value in data set [1] amounted to 0.38. Moreover, the EC50 (usually the concentration that produces a half-maximal response) in data set [2] is 2490 nM; in data set [5] it was 6540 nM; in data set [7], > 20 µM. In addition, the Papp in data set [3] was found to be 114 ×10⁻⁶ cm/s. Moreover, in data set [4], the selectivity ratio was ≥ 100. This compound gave a logD in data set [6] of 2.4. This compound gave a solubility in data set [8] of 91 µM (≈ 23.4 µg/mL).

On to `O=c1c2c([nH]c3c(F)ccc(F)c13)CCCC2`, for which, in data set [1], the “Ratio EC50” value was 1.64. Moreover, the EC50 in data set [2] is 1320 nM; in data set [5] it was 804 nM; in data set [7], > 40 µM. The Papp in data set [3] turned out to be 12 ×10⁻⁶ cm/s. In addition, the selectivity ratio in data set [4] is ≥ 100. The compound also came in with a logD in data set [6] of 1.3. Also, in data set [8], the concentration in solution (solubility) was 159 µM (≈ 37.4 µg/mL).

Take `Cc1cccc2c(=O)c3c([nH]c12)CC(C)(C)CC3`: the “Ratio EC50” value in data set [1] was found to be 0.74. Besides, the EC50 is 1750 nM in data set [2], 2370 nM in data set [5] and > 40 µM in data set [7]. Also, in data set [3], the Papp is 88 ×10⁻⁶ cm/s. Further, the selectivity ratio in data set [4] was ≥ 100. In data set [6], this compound gave a logD of 2.3. The solubility in data set [8] was found to be 60 µM (≈ 14.5 µg/mL).

With `CC(C)(C)c1cccc2c(=O)c3c([nH]c12)CCCC3`, the concentration giving a half-maximal response (EC50) in data set [2] is > 9790 nM; in data set [5], > 9790 nM; in data set [7], > 10 µM. For the same compound, the Papp in data set [3] was determined as 553 ×10⁻⁶ cm/s. Further, the selectivity ratio in data set [4] was ≥ 100. The compound also gave a logD in data set [6] of 3.3. This compound displayed a solubility in data set [8] of 90 µM (≈ 23 µg/mL).

Consider `O=c1c2c([nH]c3c(Cl)cc(Cl)cc13)CCCC2`, for which the EC50 in data set [2] was > 9320 nM; in data set [5], > 9320 nM; in data set [7], > 1 µM. The Papp in data set [3] was 252 ×10⁻⁶ cm/s. Also, the selectivity ratio in data set [4] was ≥ 100. In addition, the logD in data set [6] was 3. In data set [8], the solubility turned out to be 1 µM (≈ 0.268 µg/mL).

As to `O=c1c2c([nH]c3cc(Br)ccc13)CCSC2`, the EC50 was > 8440 nM in data set [2], 667 nM in data set [5] and > 10 µM in data set [7]. Besides, the Papp in data set [3] stood at 6.3 ×10⁻⁶ cm/s. For the same compound, the selectivity ratio in data set [4] was ≥ 100. The compound further came in with a logD in data set [6] of 0.9. The compound also gave a solubility in data set [8] of 17 µM (≈ 5.04 µg/mL).

`O=c1c2c([nH]c3ccc(Oc4ccc(F)cc4)cc13)CCCC2`: in data set [1], the “Ratio EC50” value is given as 0.28. Moreover, the EC50 was 47 nM in data set [2], 169 nM in data set [5] and > 5 µM in data set [7]. Also, the selectivity ratio in data set [4] was ≥ 100. Moreover, the logD in data set [6] is 2.8. The compound also returned a solubility in data set [8] of 8 µM (≈ 2.47 µg/mL).

For `Cc1cc(C)c2c(=O)c3c([nH]c2c1)CCCC3`, the “Ratio EC50” value in data set [1] came to 1.54. In addition, the EC50 in data set [2] stood at 4830 nM; in data set [5], 3130 nM. Also, in data set [3], the Papp was 218 ×10⁻⁶ cm/s. Moreover, the selectivity ratio in data set [4] was ≥ 100. This compound displayed a logD in data set [6] of 2.4. For the same compound, in data set [8], the concentration in solution (solubility) came to 17 µM (≈ 3.86 µg/mL).

Turning to `CN1CCc2[nH]c3ccccc3c(=O)c2C1`, the EC50 in data set [2] is > 9990 nM; in data set [5], > 9990 nM; in data set [7], > 20 µM. Moreover, the Papp in data set [3] was determined as 21 ×10⁻⁶ cm/s. In addition, the selectivity ratio in data set [4] is ≥ 100. Moreover, the logD in data set [6] amounted to 1. Also, the solubility in data set [8] was 33 µM (≈ 7.07 µg/mL).

For `CN(C)CCC/N=C1\CC(c2ccc(Cl)cc2Cl)Cc2nc3ccc(Cl)cc3c(O)c21` (racemic), the “Ratio EC50” value in data set [1] was 12. In addition, the EC50 in data set [2] was 300 nM; in data set [5], 25 nM. Further, the selectivity ratio in data set [4] was ≥ 100.

On to `C[C@H]1[C@@H](O)O[C@@H]2O[C@@]3(C)CC[C@H]4[C@H](C)CC[C@@H]1[C@@]24OO3` [ARTENIMOL], for which the figures for the 50% effective concentration (EC50) in data set [2] and in data set [5] were 0.9 nM and 1.8 nM, respectively.

As for `Cc1cccc2[nH]c3c(c(=O)c12)CCC(C)(C)C3`, the half-maximal effective concentration (EC50) in data set [2] is > 9990 nM; in data set [5] it was > 9990 nM; in data set [7], > 5 µM. For the same compound, the Papp in data set [3] is 240 ×10⁻⁶ cm/s. Also, the selectivity ratio in data set [4] was ≥ 100. The compound also displayed a logD in data set [6] of 2.8. The compound also registered a solubility in data set [8] of 9 µM (≈ 2.17 µg/mL).

For `CC1(C)CCc2c([nH]c3cc(Cl)ccc3c2=O)C1`, the “Ratio EC50” value in data set [1] came out at 0.6. For the same compound, the half-maximal effective concentration (EC50) in data set [2] was 645 nM; in data set [5], 1080 nM; in data set [7], > 1 µM. In addition, in data set [4], the selectivity ratio is ≥ 100. This compound had a logD in data set [6] of 2.9. This compound displayed a solubility in data set [8] of 1 µM (≈ 0.262 µg/mL).

Turning to `O=c1c2c([nH]c3c(C(F)(F)F)cccc13)CCCC2`, the EC50 is > 9350 nM in data set [2], > 9350 nM in data set [5] and > 20 µM in data set [7]. Moreover, the Papp in data set [3] was 246 ×10⁻⁶ cm/s. The selectivity ratio in data set [4] was ≥ 100. Further, the logD in data set [6] came out at 2.6. This compound also came in with a solubility in data set [8] of 116 µM (≈ 31 µg/mL).

For `COc1ccc(OC)c2c(=O)c3c([nH]c12)CCCC3`, the figures for the EC50 in data set [2], in data set [5] and in data set [7] were > 9640 nM, > 9640 nM and > 20 µM, respectively. The Papp in data set [3] turned out to be 9 ×10⁻⁶ cm/s. Moreover, in data set [4], the selectivity ratio was ≥ 100. Also, the logD in data set [6] amounted to 1.5. The concentration in solution in data set [8] (solubility) was 105 µM (≈ 27.2 µg/mL).

Consider `Cc1cc2[nH]c3c(c(=O)c2cc1C)CCCC3`, for which the EC50 was 216 nM in data set [2], 262 nM in data set [5] and > 20 µM in data set [7]. The Papp in data set [3] was determined as 46 ×10⁻⁶ cm/s. The solubility in data set [8] is 41 µM (≈ 9.32 µg/mL).

Consider `CC(C)Oc1cc2[nH]c3c(c(=O)c2cc1Cl)CCCC3`, for which the “Ratio EC50” value in data set [1] is reported as 4.88. The concentration giving a half-maximal response (EC50) in data set [2] was 104 nM; in data set [5], 21.3 nM; in data set [7] it was > 0.1 µM. Moreover, in data set [4], the selectivity ratio is ≥ 100. The logD in data set [6] was 2.9. For the same compound, the concentration in solution in data set [8] (solubility) was 0.3 µM (≈ 0.0875 µg/mL).

As to `O=C1CC(c2ccc(Cl)cc2Cl)Cc2nc3ccc(Cl)cc3c(O)c21` (stereo unspecified), in data set [1], the “Ratio EC50” value turned out to be 3.19. Moreover, the values for the EC50 in data set [2] and in data set [5] were 27.8 nM and 8.71 nM, respectively. Further, the Papp in data set [3] worked out at 20 ×10⁻⁶ cm/s. In addition, in data set [4], the selectivity ratio was ≥ 100. Also, the pH-dependent lipophilicity (logD) in data set [6] was found to be 3.1. The compound also registered a solubility in data set [8] of 1 µM (≈ 0.393 µg/mL).

In the case of `O=c1c2c([nH]c3c(Cl)ccc(Cl)c13)CCCC2`, the figures for the EC50 in data set [2], in data set [5] and in data set [7] were > 9320 nM, > 9320 nM and > 20 µM, respectively. Moreover, the Papp in data set [3] came out at 288 ×10⁻⁶ cm/s. Moreover, in data set [4], the selectivity ratio is ≥ 100. The same compound returned a logD in data set [6] of 2.6. In data set [8], this compound registered a solubility of 108 µM (≈ 29 µg/mL).

As for `O=C1C(O)=C([C@H]2CC[C@H](c3ccc(Cl)cc3)CC2)C(=O)c2ccccc21` [ATOVAQUONE], the concentration giving a half-maximal response (EC50) in data set [2] was > 170 nM; in data set [5] it was 0.53 nM.

The values above are taken from ChEMBL document CHEMBL1799910, “Optimization of 1,2,3,4-tetrahydroacridin-9(10H)-ones as antimalarials utilizing structure-activity and structure-property relationships” (J Med Chem, 2011).
